PubChem BioAssay (NCI)
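Cultured in 96-well plates, cells were exposed to test compound for 48 hours across five concentrations. TGI denotes the concentration required for complete inhibition of growth.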

Tested on: SN12K1 renal
Assay: inhibition of tumour cell growth, NCI panel, 48 h

Row | Compound | TGI [µM]
1 | NS(=O)(=O)OCCCCCCCOS(N)(=O)=O | 605
2 | CC1=C(C(=O)Nc2ccc(Cl)c(C(=O)OC(C)C)c2)SCCO1 | 63.1
